The values that follow come from patent US9132140B2, “Boronic acid derivatives and therapeutic uses thereof” (Rempex Pharmaceuticals, Inc., priority 2013, dated 2015).

The subject of test [1] is EC1064 (NDM-1, CMY-6, CTX-M-15). Type of test: cell-based, Escherichia coli. From the text: (§1) Several strains simultaneously expressing both class A and class B carbapenemases, which were constructed using conjugation, were also included in the panel.
In another test the test system is EC1061 (NDM-1, CMY-6). It is filed as cell-based, Escherichia coli.
Description: as §1

The next test relates to EC1065 (IMP-1 CMY-2). It is filed as cell-based, Escherichia coli.
Description: as §1

For the next test, the system named is EC1068 (VIM-1). Type of test: cell-based, Escherichia coli.
Description: as §1

For test [2], the system named is KPM1346 (NDM-1 TEM SHV CTX-M-15 CMY). It is filed as cell-based, Klebsiella pneumoniae.
Description: as §1

The next test concerns KPM1108 (NDM, KPC). It is filed as cell-based, Klebsiella pneumoniae.
Description: as §1

For the next test, the system named is KP1064 (KPC TEM SHV). It is filed as cell-based, Klebsiella pneumoniae.
Description: as §1

For another test, the system named is KPM1110 (NDM, KPC). Type of test: cell-based, Klebsiella pneumoniae.
Description: as §1

A further test deals with KP1061 (KPC TEM SHV). Type of test: cell-based, Klebsiella pneumoniae.
Description: as §1

Another test deals with KPM1109 (NDM, KPC). Type of test: cell-based, Klebsiella pneumoniae.
Description: as §1

In test [3] the test system is KPM1347 (NDM-1 SHV CTX-M-15). It is filed as cell-based, Klebsiella pneumoniae.
Description: as §1

Another test has as its system KPM1344 (VIM-1). Type of test: cell-based, Klebsiella pneumoniae.
Description: as §1

Another test has as its system KP1098 (IMP-26 TEM SHV). It is filed as cell-based, Klebsiella pneumoniae.
Description: as §1

A further test relates to KP1054 (VIM-1, SHV-11). Type of test: cell-based, Klebsiella pneumoniae.
Description: as §1

The next test concerns KP1070 (KPC TEM SHV). It is filed as cell-based, Klebsiella pneumoniae.
Description: as §1

The next test deals with KPM1122 (NDM, VIM). Type of test: cell-based, Klebsiella pneumoniae.
Description: as §1

The next test deals with KP1059 (VIM-1, SHV-11). Type of test: cell-based, Klebsiella pneumoniae.
Description: as §1

A further test concerns KPM1107 (NDM, KPC). It is filed as cell-based, Klebsiella pneumoniae.
Description: as §1

The test system of another test is KPM1099 (NDM, KPC). Type of test: cell-based, Klebsiella pneumoniae.
Description: as §1

In the next test the test system is KPM1111 (NDM, KPC). Type of test: cell-based, Klebsiella pneumoniae.
Description: as §1

The next test deals with KPM1123 (KPC-2 TEM SHV). Type of test: cell-based, Klebsiella pneumoniae.
Description: as §1

The test system of test [4] is KP1081 (NDM-1, TEM-1, SHV-11, CMY-6, CTX-M-15). Type of test: cell-based, Klebsiella pneumoniae.
Description: as §1

In a further test the test system is KPM1345 (VIM-1 SHV). It is filed as cell-based, Klebsiella pneumoniae.
Description: as §1

For the compound `C[C@@H](O)[C@H]1C(=O)N2C(C(=O)O)=C(SCCN=CN)C[C@H]12` [Imipenem, reference compound], the “Carbapenem MIC alone” value was “Z (key: X: MIC of less than 1 μg/mL; Y: MIC of 1 μg/mL to 10 μg/mL; Z: MIC of greater than 10 μg/mL)” in test [1]; “Y (key: X: MIC of less than 1 μg/mL; Y: MIC of 1 μg/mL to 10 μg/mL; Z: MIC of greater than 10 μg/mL)” with EC1061 (NDM-1, CMY-6); “Y (key: X: MIC of less than 1 μg/mL; Y: MIC of 1 μg/mL to 10 μg/mL; Z: MIC of greater than 10 μg/mL)” in the test on EC1065 (IMP-1 CMY-2); “Y (key: X: MIC of less than 1 μg/mL; Y: MIC of 1 μg/mL to 10 μg/mL; Z: MIC of greater than 10 μg/mL)” with EC1068 (VIM-1); “Z (key: X: MIC of less than 1 μg/mL; Y: MIC of 1 μg/mL to 10 μg/mL; Z: MIC of greater than 10 μg/mL)” in test [2]; “Z (key: X: MIC of less than 1 μg/mL; Y: MIC of 1 μg/mL to 10 μg/mL; Z: MIC of greater than 10 μg/mL)” with KPM1108 (NDM, KPC). Further, the “Carbapenem MIC alone” value is “Z (key: X: MIC of less than 1 μg/mL; Y: MIC of 1 μg/mL to 10 μg/mL; Z: MIC of greater than 10 μg/mL)” in the test on KP1064 (KPC TEM SHV); “Z (key: X: MIC of less than 1 μg/mL; Y: MIC of 1 μg/mL to 10 μg/mL; Z: MIC of greater than 10 μg/mL)” in the test with KPM1110 (NDM, KPC); “Z (key: X: MIC of less than 1 μg/mL; Y: MIC of 1 μg/mL to 10 μg/mL; Z: MIC of greater than 10 μg/mL)” in the test on KP1061 (KPC TEM SHV); “Z (key: X: MIC of less than 1 μg/mL; Y: MIC of 1 μg/mL to 10 μg/mL; Z: MIC of greater than 10 μg/mL)” in the test with KPM1109 (NDM, KPC); “Z (key: X: MIC of less than 1 μg/mL; Y: MIC of 1 μg/mL to 10 μg/mL; Z: MIC of greater than 10 μg/mL)” in test [3]; “Z (key: X: MIC of less than 1 μg/mL; Y: MIC of 1 μg/mL to 10 μg/mL; Z: MIC of greater than 10 μg/mL)” with KPM1344 (VIM-1). Besides, the “Carbapenem MIC alone” value in the test on KP1098 (IMP-26 TEM SHV) is on record as “Y (key: X: MIC of less than 1 μg/mL; Y: MIC of 1 μg/mL to 10 μg/mL; Z: MIC of greater than 10 μg/mL)”; in the test with KP1054 (VIM-1, SHV-11), “Y (key: X: MIC of less than 1 μg/mL; Y: MIC of 1 μg/mL to 10 μg/mL; Z: MIC of greater than 10 μg/mL)”; in the test on KP1070 (KPC TEM SHV), “Z (key: X: MIC of less than 1 μg/mL; Y: MIC of 1 μg/mL to 10 μg/mL; Z: MIC of greater than 10 μg/mL)”; in the test with KPM1122 (NDM, VIM), “Z (key: X: MIC of less than 1 μg/mL; Y: MIC of 1 μg/mL to 10 μg/mL; Z: MIC of greater than 10 μg/mL)”; in the test on KP1059 (VIM-1, SHV-11) it was “Z (key: X: MIC of less than 1 μg/mL; Y: MIC of 1 μg/mL to 10 μg/mL; Z: MIC of greater than 10 μg/mL)”; with KPM1107 (NDM, KPC), “Z (key: X: MIC of less than 1 μg/mL; Y: MIC of 1 μg/mL to 10 μg/mL; Z: MIC of greater than 10 μg/mL)”. Further, the “Carbapenem MIC alone” value in the test with KPM1099 (NDM, KPC) was “Z (key: X: MIC of less than 1 μg/mL; Y: MIC of 1 μg/mL to 10 μg/mL; Z: MIC of greater than 10 μg/mL)”; in the test on KPM1111 (NDM, KPC), “Z (key: X: MIC of less than 1 μg/mL; Y: MIC of 1 μg/mL to 10 μg/mL; Z: MIC of greater than 10 μg/mL)”; in the test on KPM1123 (KPC-2 TEM SHV), “Z (key: X: MIC of less than 1 μg/mL; Y: MIC of 1 μg/mL to 10 μg/mL; Z: MIC of greater than 10 μg/mL)”; in test [4] it was “Z (key: X: MIC of less than 1 μg/mL; Y: MIC of 1 μg/mL to 10 μg/mL; Z: MIC of greater than 10 μg/mL)”; in the test on KPM1345 (VIM-1 SHV), “Y (key: X: MIC of less than 1 μg/mL; Y: MIC of 1 μg/mL to 10 μg/mL; Z: MIC of greater than 10 μg/mL)”.
